Values joined by “and” are separate entries in the source; they are usually repeats but may differ in a detail not shown here. Identical values can stand only once. Inconclusive results and toxic doses are left out. No stated cut-off is given here; in the data, active means T/C of 150% or more; inactive means T/C below 125%.
System: L1210 leukemia ip in BDF1 mice, survival T/C
Test: NCI In Vivo Anticancer Drug Screen. Data for tumor model L1210 Leukemia (intraperitoneal) in B6D2F1 (BDF1) mice
Details: endpoint: mean survival time, higher = longer survival
Outline: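 Transplantable tumor model; survival measured in treated vs vehicle control mice. Value = treated/control.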

[1] = dose: 100.0 mg/kg/injection, schedule: Q01DX001 (ip), vehicle: carboxymethylcellulose (CMC)
[2] = dose: 100.0 mg/kg/injection, schedule: Q04DX003 (ip), vehicle: saline with Tween-80
[3] = dose: 200.0 mg/kg/injection, schedule: Q01DX001 (ip), vehicle: carboxymethylcellulose (CMC)
[4] = dose: 200.0 mg/kg/injection, schedule: Q04DX003 (ip), vehicle: saline with Tween-80
[5] = dose: 400.0 mg/kg/injection, schedule: Q01DX001 (ip), vehicle: carboxymethylcellulose (CMC)
[6] = dose: 400.0 mg/kg/injection, schedule: Q04DX003 (ip), vehicle: saline with Tween-80
[7] = dose: 100.0 mg/kg/injection, schedule: Q01DX009 (ip), vehicle: saline with Tween-80
[8] = dose: 200.0 mg/kg/injection, schedule: Q01DX009 (ip), vehicle: saline with Tween-80
[9] = dose: 400.0 mg/kg/injection, schedule: Q01DX009 (ip), vehicle: saline with Tween-80
[10] = dose: 100.0 mg/kg/injection, schedule: Q01DX001 (ip), vehicle: saline
[11] = dose: 200.0 mg/kg/injection, schedule: Q01DX001 (ip), vehicle: saline
[12] = dose: 400.0 mg/kg/injection, schedule: Q01DX001 (ip), vehicle: saline
[13] = dose: 400.0 mg/kg/injection, schedule: Q04DX002 (ip), vehicle: saline with Tween-80

Measured: T/C

O=C1CSC(=S)N1c1ccccc1
inactive: [1] 95 % of control | [2] 96 % of control | [3] 97 % of control | [4] 93 % of control | [5] 93 % of control | [6] 90 % of control

CCOC(=O)c1cnc(SC)nc1Nc1ccccc1Cl
inactive: [2] 87 % of control | [4] 87 % of control

On1ccccc1=S
inactive: dose: 6.25 mg/kg/injection, schedule: Q04DX002 (ip), vehicle: saline with Tween-80 100 % of control | dose: 12.5 mg/kg/injection, schedule: Q04DX002 (ip), vehicle: saline with Tween-80 111 % of control | dose: 25.0 mg/kg/injection, schedule: Q04DX002 (ip), vehicle: saline with Tween-80 100 % of control

C=CCNC(=S)Nc1ccc(OC(=O)NC2CCCCC2)cc1
inactive: [7] 110 % of control | [2] 110 % of control | [8] 106 % of control | [4] 113 % of control | [9] 102 % of control | [6] 98 % of control

CCN(CC)CCC(=O)OC
inactive: dose: 50.0 mg/kg/injection, schedule: Q01DX001 (ip), vehicle: saline 97 % of control | [10] 100 % of control | [11] 100 % of control | [12] 97 % of control

CC(C)(Cc1ccccc1)C(C(=O)O)C(=O)O
inactive: dose: 100.0 mg/kg/injection, schedule: Q01DX001 (ip), vehicle: gum acacia 91 % of control | dose: 200.0 mg/kg/injection, schedule: Q01DX001 (ip), vehicle: gum acacia 95 % of control

Cc1csc(C)n1.Cc1csc(C)n1.Cc1csc(C)n1.Cc1csc(C)n1.[Cl][Rh][Cl]
inactive: dose: 3.13 mg/kg/injection, schedule: Q04DX003 (ip), vehicle: distilled water + Tween-80 105 % of control | dose: 6.25 mg/kg/injection, schedule: Q04DX003 (ip), vehicle: distilled water + Tween-80 102 % of control | dose: 12.5 mg/kg/injection, schedule: Q04DX003 (ip), vehicle: distilled water + Tween-80 100 % of control | dose: 25.0 mg/kg/injection, schedule: Q04DX003 (ip), vehicle: distilled water + Tween-80 110 % of control

CCOC(=O)C1=C(NNC(N)=S)C2CCN1CC2
inactive: [10] 105 % of control | [11] 100 % of control | [12] 101 % of control

Cc1cccn2c(=O)cc(Cl)nc12
inactive: [1] 96 % of control | [3] 98 % of control

CCCCCCCCCCCCN=C(N)C(N)=NCCCCCCCCCCCC
inactive: dose: 100.0 mg/kg/injection, schedule: Q04DX002 (ip), vehicle: other 108 % of control | dose: 200.0 mg/kg/injection, schedule: Q04DX002 (ip), vehicle: other 96 % of control | dose: 400.0 mg/kg/injection, schedule: Q04DX002 (ip), vehicle: other 87 % of control

N/C(=N\N=C\c1c(F)c(F)c(F)c(F)c1F)N[N+](=O)[O-]
inactive: [7] 102 % of control | [8] 97 % of control | [9] 94 % of control

CC(C)CCCC(C)CCC1C(=O)NC(=O)NC1=O (centres undefined)
inactive: dose: 75.0 mg/kg/injection, schedule: Q01DX001 (ip), vehicle: saline 90 % of control | dose: 150.0 mg/kg/injection, schedule: Q01DX001 (ip), vehicle: saline 88 % of control

COc1ccc(/C=C/c2c3cc(OC)c(OC)cc3cc3c4cc(OC)c(OC)cc4cc[n+]23)cc1OC
inactive: [1] 93 % of control and 108 % of control | dose: 100.0 mg/kg/injection, schedule: Q04DX002 (ip), vehicle: carboxymethylcellulose (CMC) 96 % of control and 89 % of control | dose: 100.0 mg/kg/injection, schedule: Q04DX003 (ip), vehicle: carboxymethylcellulose (CMC) 97 % of control | [3] 97 % of control and 100 % of control | dose: 200.0 mg/kg/injection, schedule: Q04DX002 (ip), vehicle: carboxymethylcellulose (CMC) 100 % of control and 87 % of control | dose: 200.0 mg/kg/injection, schedule: Q04DX003 (ip), vehicle: carboxymethylcellulose (CMC) 92 % of control | [5] 102 % of control and 90 % of control | dose: 400.0 mg/kg/injection, schedule: Q04DX002 (ip), vehicle: carboxymethylcellulose (CMC) 86 % of control and 92 % of control | dose: 400.0 mg/kg/injection, schedule: Q04DX003 (ip), vehicle: carboxymethylcellulose (CMC) 101 % of control

C=CC(C)CCCC(C)C (centres undefined)
inactive: dose: 100.0 mg/kg/injection, schedule: Q04DX003 (ip), vehicle: saline 91 % of control | dose: 200.0 mg/kg/injection, schedule: Q04DX003 (ip), vehicle: saline 97 % of control | dose: 400.0 mg/kg/injection, schedule: Q04DX003 (ip), vehicle: saline 91 % of control

C=CCN(CC=C)c1nc(OC)nc(OC)n1
inactive: dose: 25.0 mg/kg/injection, schedule: Q01DX009 (ip), vehicle: saline with Tween-80 92 % of control | dose: 25.6 mg/kg/injection, schedule: Q04DX002 (ip), vehicle: saline with Tween-80 97 % of control | dose: 50.0 mg/kg/injection, schedule: Q01DX009 (ip), vehicle: saline with Tween-80 94 % of control | dose: 50.0 mg/kg/injection, schedule: Q04DX003 (ip), vehicle: saline with Tween-80 95 % of control | dose: 64.0 mg/kg/injection, schedule: Q04DX002 (ip), vehicle: saline with Tween-80 101 % of control | [7] 94 % of control | [2] 95 % of control and 103 % of control | dose: 160.0 mg/kg/injection, schedule: Q04DX002 (ip), vehicle: saline with Tween-80 101 % of control | [4] 92 % of control | [13] 101 % of control

NC(=O)c1ccccc1NC(=O)Nc1ccc([N+](=O)[O-])cc1Cl
inactive: [7] 98 % of control | [2] 95 % of control | [8] 102 % of control | [4] 96 % of control | [9] 98 % of control | [6] 95 % of control

O=c1oc(-c2ccccc2)c(-c2ccccc2)c(-c2ccccc2)c1-c1ccccc1
inactive: dose: 100.0 mg/kg/injection, schedule: Q01DX001 (ip), vehicle: saline with Tween-80 103 % of control | dose: 200.0 mg/kg/injection, schedule: Q01DX001 (ip), vehicle: saline with Tween-80 91 % of control | dose: 400.0 mg/kg/injection, schedule: Q01DX001 (ip), vehicle: saline with Tween-80 91 % of control

CC(C)(C)c1cc(N)cc(C(C)(C)C)c1O
inactive: dose: 200.0 mg/kg/injection, schedule: Q04DX002 (ip), vehicle: saline with Tween-80 87 % of control | [13] 90 % of control

c1ccc(N/N=C(\c2ccccc2)c2cccs2)cc1
inactive: [7] 97 % of control | [2] 98 % of control | [8] 97 % of control | [4] 104 % of control | [9] 91 % of control | [6] 98 % of control

O=[N+]([O-])c1ccc(O)c(CN(Cc2ccccc2)Cc2c(O)ccc3ccccc23)c1
inactive: [1] 98 % of control | [3] 93 % of control | [5] 96 % of control

CN(C)/N=N/c1ncn(C2CCCO2)c1C(N)=O (centres undefined)
inactive: dose: 200.0 mg/kg/injection, schedule: Q01DX005 (ip), vehicle: saline 115 % of control

c1ccc2oc(CCCCc3nc4ccccc4o3)nc2c1
inactive: dose: 100.0 mg/kg/injection, schedule: Q01DX009 (ip), vehicle: Klucel (hydroxypropylcellulose) (HPC) 91 % of control | dose: 100.0 mg/kg/injection, schedule: Q04DX003 (ip), vehicle: Klucel (hydroxypropylcellulose) (HPC) 102 % of control | dose: 200.0 mg/kg/injection, schedule: Q01DX009 (ip), vehicle: Klucel (hydroxypropylcellulose) (HPC) 102 % of control | dose: 200.0 mg/kg/injection, schedule: Q04DX003 (ip), vehicle: Klucel (hydroxypropylcellulose) (HPC) 104 % of control | dose: 400.0 mg/kg/injection, schedule: Q01DX009 (ip), vehicle: Klucel (hydroxypropylcellulose) (HPC) 92 % of control | dose: 400.0 mg/kg/injection, schedule: Q04DX003 (ip), vehicle: Klucel (hydroxypropylcellulose) (HPC) 102 % of control
